We go through six compounds from ChEMBL document CHEMBL1150113, “Ulongamides A-F, new beta-amino acid-containing cyclodepsipeptides from Palauan collections of the marine cyanobacterium Lyngbya sp” (J Nat Prod, 2002).

Common to all, as to format: functional, cell-based
Experiment [1] has as its system LoVo. As to the kind of experiment: Cytotoxicity against human LoVo cells at < 10 uM.
The subject of experiment [2] is KB. As to the kind of experiment: Cytotoxicity against human KB cells at < 10 uM.
Experiment [3] concerns LoVo. Kind of experiment: Cytotoxicity against human LoVo cells.
Experiment [4] relates to KB. As to the kind of experiment: Cytotoxicity against human KB cells.

Each structure is given as a SMILES string. Calls of active or inactive are those of the source. No cut-off for these calls is given here.

Take `CCC[C@H]1NC(=O)c2csc(n2)[C@H](C)NC(=O)[C@H](C(C)C)N(C)C(=O)[C@H](C(C)C)NC(=O)[C@H]([C@@H](C)CC)OC(=O)[C@H]1C`: the outcome in experiment [1] and in experiment [2] was inactive.

By IC50 is commonly meant the concentration at which inhibition is half-maximal. A higher IC50 goes with lower potency. For the compound `CCC[C@H]1NC(=O)c2csc(n2)[C@H](C)NC(=O)[C@H](C(C)C)N(C)C(=O)[C@H](Cc2ccccc2)N(C)C(=O)[C@H](C)OC(=O)[C@@H]1C` [ULONGAMIDE A], the IC50 worked out at 5000 nM in experiment [3] and 1000 nM in experiment [4].

As to `CCC[C@H]1NC(=O)c2csc(n2)[C@H](C)NC(=O)[C@H](C(C)C)N(C)C(=O)[C@H](Cc2ccc(O)cc2)N(C)C(=O)[C@H](C)OC(=O)[C@@H]1C` [ULONGAMIDE B], the half-maximal inhibitory concentration (IC50) came to 5000 nM in experiment [3] and 1000 nM in experiment [4].

As for `CCC[C@H]1NC(=O)c2csc(n2)[C@H](C)NC(=O)[C@H](Cc2ccccc2)N(C)C(=O)[C@H](Cc2ccc(O)cc2)N(C)C(=O)[C@H](C)OC(=O)[C@@H]1C` [ULONGAMIDE C], the figures for the half-maximal inhibitory concentration (IC50) in experiment [3] and in experiment [4] were 5000 nM and 1000 nM, respectively.

`CCC[C@H]1NC(=O)c2csc(n2)[C@H](C)NC(=O)[C@H](C(C)C)N(C)C(=O)[C@H](Cc2ccc(O)cc2)N(C)C(=O)[C@H](C(C)C)OC(=O)[C@H]1C` [ULONGAMIDE D]: the figures for the concentration for half-maximal inhibition (IC50) in experiment [3] and in experiment [4] were 5000 nM and 1000 nM, respectively.

`CCC[C@H]1NC(=O)c2csc(n2)[C@H](C)NC(=O)[C@H](C(C)C)N(C)C(=O)[C@H](Cc2ccc(O)cc2)N(C)C(=O)[C@H]([C@H](C)CC)OC(=O)[C@H]1C` [ULONGAMIDE E]: the half-maximal inhibitory concentration (IC50) worked out at 5000 nM in experiment [3] and 1000 nM in experiment [4].
